According to patent publication US20120122181A1, “METHOD FOR DETERMINING ANTAGONIST ACTIVITY TO A CYTOKININ RECEPTOR” (SUMITOMO CHEMICAL COMPANY, LIMITED, priority 2001, published 2012):

What was measured:
[1] = biological target: T1, cytokinin receptor AHK2 Δ (transformed cell TM182-AHK2 Δ) (Arabidopsis thaliana, UniProt Q9C5U2); experiment: Searching agonist-activity to cytokinin receptor (Part 1), optical density of liquid culture; type: cell-based; design: one added initiator methionine (ATG added 5' of codon 196) (N); expressed in transfected cells; host or cells: Saccharomyces cerevisiae TM182 (sln1 deletion), plasmid p415CYC-AHK2 Δ; settings: examinee substance 100 μM final concentration, DOLU+Gul medium, 30° C., 24 hours; DMSO blank 0
T1 sequence (Q9C5U2 196-1176): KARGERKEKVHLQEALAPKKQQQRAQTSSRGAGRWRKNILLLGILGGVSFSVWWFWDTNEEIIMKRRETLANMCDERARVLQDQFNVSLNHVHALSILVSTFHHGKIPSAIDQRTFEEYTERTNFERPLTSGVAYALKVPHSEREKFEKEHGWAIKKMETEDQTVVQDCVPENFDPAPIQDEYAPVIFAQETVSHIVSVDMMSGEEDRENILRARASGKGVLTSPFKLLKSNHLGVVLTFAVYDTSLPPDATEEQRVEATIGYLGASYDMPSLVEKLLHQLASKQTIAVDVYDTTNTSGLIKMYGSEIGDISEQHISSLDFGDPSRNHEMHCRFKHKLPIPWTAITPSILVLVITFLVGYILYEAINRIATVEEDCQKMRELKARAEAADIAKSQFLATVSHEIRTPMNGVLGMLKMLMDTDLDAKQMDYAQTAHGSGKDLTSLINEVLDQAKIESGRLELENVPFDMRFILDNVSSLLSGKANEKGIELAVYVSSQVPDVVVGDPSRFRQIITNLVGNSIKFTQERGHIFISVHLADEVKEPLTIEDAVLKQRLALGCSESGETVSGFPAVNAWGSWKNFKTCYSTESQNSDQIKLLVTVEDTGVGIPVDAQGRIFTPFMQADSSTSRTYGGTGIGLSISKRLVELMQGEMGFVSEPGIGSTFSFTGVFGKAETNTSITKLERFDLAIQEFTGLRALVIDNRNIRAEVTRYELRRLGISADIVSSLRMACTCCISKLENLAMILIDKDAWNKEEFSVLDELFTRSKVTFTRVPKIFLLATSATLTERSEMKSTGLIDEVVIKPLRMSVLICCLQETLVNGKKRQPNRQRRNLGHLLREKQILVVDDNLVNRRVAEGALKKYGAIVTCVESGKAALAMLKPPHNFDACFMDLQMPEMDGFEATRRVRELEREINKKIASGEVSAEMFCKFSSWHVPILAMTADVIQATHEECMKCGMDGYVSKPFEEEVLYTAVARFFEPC
Procedure: The transformed cells TM182-CRE1, TM182-AHK2, TM182-AHK2 Δ and TM182-AHK3 produced in the example 12 were inoculated in 200 ml of DOLU+Gal culture media and pre-cultured at 30° C. for 36 hours. The pre-cultured solutions were diluted with DOLU+Gul media as to become 0.100 as the optical density (0D600) and further the resultants were diluted with DOLU+Gul media at a dilution rate of 1/200 to obtain diluted pre-cultured solutions.
An assay plate was prepared by filling respective wells of a 96-well plate with 20 μl of solutions which were prepared by diluting DMSO solution (10 mM) of each examinee substance with DOLU+Gul medium at a dilution rate of 1/100, said solutions containing each examinee substance to be 100 μM at the final concentration. […]
The diluted pre-cultured solutions were added in 200 μl each into the respective wells of both assay plates and cultured at 30° C. for 24 hours and then the optical density (0D620) of each well was measured by a plate reader. The agonist-activity of the examinee substances to the cytokinin receptor was detected by comparing the optical density measured in the testing sections to which the examinee substances were added with the optical density measured in the blank sections.

[2] = biological target: T1, cytokinin receptor AHK2 Δ (transformed cell TM182-AHK2 Δ); settings: DOLU+Gul agar, concentrations 1 nM to 100 μM, 30° C., 30 hours
Procedure: (§1) After incubation, the growth state of the transformed cells was observed and photographed by a digital camera.
(§2) The lowest supply concentrations of trans-zeatin and cis-zeatin in which the respective transformed cells could be grown were shown in Table 1.

[3] = biological target: T2, cytokinin receptor CRE1 (transformed cell TM182-CRE1) (Arabidopsis thaliana, UniProt Q9C5U0, S567G/T1018A); settings: DOLU+Gul agar, concentrations 1 nM to 100 μM, 30° C., 30 hours
T2 sequence (Q9C5U0 24-1080 S567G/T1018A): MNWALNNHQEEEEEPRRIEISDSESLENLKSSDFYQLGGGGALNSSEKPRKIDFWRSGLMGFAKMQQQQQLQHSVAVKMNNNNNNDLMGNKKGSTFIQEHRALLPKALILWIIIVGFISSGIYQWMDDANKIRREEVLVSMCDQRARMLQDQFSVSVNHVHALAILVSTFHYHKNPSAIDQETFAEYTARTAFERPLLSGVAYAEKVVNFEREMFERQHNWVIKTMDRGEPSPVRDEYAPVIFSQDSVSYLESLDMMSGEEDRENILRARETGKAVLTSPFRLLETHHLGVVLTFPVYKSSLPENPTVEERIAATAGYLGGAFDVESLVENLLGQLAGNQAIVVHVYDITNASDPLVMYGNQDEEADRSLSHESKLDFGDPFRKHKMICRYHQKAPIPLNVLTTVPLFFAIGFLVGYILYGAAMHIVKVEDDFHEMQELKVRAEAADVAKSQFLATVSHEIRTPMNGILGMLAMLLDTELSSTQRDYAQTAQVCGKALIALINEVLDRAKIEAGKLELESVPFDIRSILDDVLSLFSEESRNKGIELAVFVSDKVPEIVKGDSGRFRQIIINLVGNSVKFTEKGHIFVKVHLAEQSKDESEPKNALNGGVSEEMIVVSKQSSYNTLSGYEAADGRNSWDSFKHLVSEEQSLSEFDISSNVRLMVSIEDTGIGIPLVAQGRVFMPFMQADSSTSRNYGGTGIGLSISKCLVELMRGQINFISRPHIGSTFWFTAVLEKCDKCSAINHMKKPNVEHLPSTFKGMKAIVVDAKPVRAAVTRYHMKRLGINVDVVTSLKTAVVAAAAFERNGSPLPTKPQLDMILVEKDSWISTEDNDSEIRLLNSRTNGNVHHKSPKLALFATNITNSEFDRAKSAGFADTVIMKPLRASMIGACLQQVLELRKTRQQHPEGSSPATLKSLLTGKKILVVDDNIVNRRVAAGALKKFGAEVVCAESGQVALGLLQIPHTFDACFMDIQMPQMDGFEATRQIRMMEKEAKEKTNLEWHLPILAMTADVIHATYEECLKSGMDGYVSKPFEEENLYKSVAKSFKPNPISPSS
Procedure: as §1, §2

[4] = biological target: T1, cytokinin receptor AHK2 Δ (transformed cell TM182-AHK2 Δ); settings: DOLU+Gul agar containing 10 μM trans-zeatin, 30° C., 30 hours; compared with media containing no trans-zeatin
Procedure: (§3) Transformation of TM182 (S1n1 Δ), S1n1 genetically detected strain, [Maeda T et al. Nature: 369 242-245 (1994)] was carried out using the obtained expression plasmid p415CYC-CRE1 (the example 5), p415CYC-AHK2 (the example 11), p415CYC-AHK2Δ (the example 11) and p415CYC-AHK3 (the example 8). The transformation was carried out by employing Polyethylene glycol/lithium acetate (PEG/LiAc)-mediated transformation method according to the description of VII. Library Transformation & Screening Protocols disclosed in […] Two-Hybrid System 3 User Manual p.
as §1

[5] = biological target: T3, cytokinin receptor AHK2 (transformed cell TM182-AHK2) (Arabidopsis thaliana, UniProt Q9C5U2); settings: DOLU+Gul agar containing 10 μM trans-zeatin, 30° C., 30 hours; compared with media containing no trans-zeatin
T3 sequence (Q9C5U2 1-1176): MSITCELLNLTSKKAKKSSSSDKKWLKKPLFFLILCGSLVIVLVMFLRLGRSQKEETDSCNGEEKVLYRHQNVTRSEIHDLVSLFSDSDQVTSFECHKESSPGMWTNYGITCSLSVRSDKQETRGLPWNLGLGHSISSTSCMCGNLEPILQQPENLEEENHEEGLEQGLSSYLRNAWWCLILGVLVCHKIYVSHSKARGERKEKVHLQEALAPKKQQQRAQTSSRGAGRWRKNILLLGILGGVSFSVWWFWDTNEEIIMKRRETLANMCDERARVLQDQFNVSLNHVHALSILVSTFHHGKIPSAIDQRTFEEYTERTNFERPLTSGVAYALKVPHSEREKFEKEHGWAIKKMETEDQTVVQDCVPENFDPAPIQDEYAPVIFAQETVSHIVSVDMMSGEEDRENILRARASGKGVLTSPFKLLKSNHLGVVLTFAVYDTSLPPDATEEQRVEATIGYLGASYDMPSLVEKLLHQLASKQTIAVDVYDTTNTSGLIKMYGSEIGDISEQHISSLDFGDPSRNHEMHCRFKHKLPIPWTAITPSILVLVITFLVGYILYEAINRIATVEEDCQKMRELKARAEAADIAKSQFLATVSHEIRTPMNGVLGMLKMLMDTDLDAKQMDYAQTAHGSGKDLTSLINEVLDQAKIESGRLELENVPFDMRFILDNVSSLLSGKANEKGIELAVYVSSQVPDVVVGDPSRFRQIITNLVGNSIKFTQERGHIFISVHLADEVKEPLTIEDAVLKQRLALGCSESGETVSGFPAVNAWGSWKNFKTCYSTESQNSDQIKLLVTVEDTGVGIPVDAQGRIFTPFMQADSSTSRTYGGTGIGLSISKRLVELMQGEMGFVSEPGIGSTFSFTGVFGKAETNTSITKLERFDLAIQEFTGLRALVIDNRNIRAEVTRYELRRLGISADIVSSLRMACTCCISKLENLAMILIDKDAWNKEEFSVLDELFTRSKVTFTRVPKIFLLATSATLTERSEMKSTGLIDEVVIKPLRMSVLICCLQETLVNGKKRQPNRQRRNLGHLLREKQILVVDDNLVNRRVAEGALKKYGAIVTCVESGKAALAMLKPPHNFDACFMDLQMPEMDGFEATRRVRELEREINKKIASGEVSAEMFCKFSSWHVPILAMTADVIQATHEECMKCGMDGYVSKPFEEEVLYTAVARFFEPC
Procedure: as §3, §1

[6] = biological target: T2, cytokinin receptor CRE1 (transformed cell TM182-CRE1); settings: DOLU+Gul agar containing 10 μM trans-zeatin, 30° C., 30 hours; compared with media containing no trans-zeatin
Procedure: as §3, §1

[7] = biological target: T4, cytokinin receptor AHK3 (transformed cell TM182-AHK3) (Arabidopsis thaliana, UniProt Q9C5U1); settings: DOLU+Gul agar containing 10 μM trans-zeatin, 30° C., 30 hours; compared with media containing no trans-zeatin
T4 sequence (Q9C5U1 1-1036): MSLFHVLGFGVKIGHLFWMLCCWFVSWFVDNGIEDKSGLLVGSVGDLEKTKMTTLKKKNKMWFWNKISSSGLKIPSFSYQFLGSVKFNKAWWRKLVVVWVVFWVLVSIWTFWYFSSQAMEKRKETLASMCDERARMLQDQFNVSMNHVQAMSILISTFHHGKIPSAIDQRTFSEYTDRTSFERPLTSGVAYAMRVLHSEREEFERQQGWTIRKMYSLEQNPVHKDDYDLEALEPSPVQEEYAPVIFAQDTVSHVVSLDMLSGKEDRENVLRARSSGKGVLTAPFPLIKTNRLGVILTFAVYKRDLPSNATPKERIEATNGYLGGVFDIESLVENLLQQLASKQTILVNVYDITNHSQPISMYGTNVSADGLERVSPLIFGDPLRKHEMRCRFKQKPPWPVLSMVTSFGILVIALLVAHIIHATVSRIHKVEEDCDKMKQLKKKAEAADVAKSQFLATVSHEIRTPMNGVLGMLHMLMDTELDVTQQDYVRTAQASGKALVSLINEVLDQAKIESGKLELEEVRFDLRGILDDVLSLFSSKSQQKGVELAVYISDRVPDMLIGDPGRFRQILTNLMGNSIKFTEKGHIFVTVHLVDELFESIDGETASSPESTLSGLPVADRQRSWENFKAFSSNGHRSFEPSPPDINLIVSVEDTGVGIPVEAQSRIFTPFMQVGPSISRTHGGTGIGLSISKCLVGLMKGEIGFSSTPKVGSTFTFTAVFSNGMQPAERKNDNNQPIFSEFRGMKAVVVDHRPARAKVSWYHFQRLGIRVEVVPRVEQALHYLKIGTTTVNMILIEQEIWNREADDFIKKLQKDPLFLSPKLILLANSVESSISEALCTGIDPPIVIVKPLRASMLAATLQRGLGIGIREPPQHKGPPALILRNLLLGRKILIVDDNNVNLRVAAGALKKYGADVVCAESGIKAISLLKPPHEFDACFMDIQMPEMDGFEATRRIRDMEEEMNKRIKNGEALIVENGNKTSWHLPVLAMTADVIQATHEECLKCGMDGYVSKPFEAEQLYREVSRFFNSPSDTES
Procedure: as §3, §1

[8] = biological target: T3, cytokinin receptor AHK2 (transformed cell TM182-AHK2); settings: DOLU+Gul agar, concentrations 1 nM to 100 μM, 30° C., 30 hours
Procedure: as §1, §2

SMILES: CC1=CC(=O)CC(C)(C)[C@@]1(O)/C=C/C(C)=C\C(=O)O [Compound A, Abscisic acid]
- optical density (OD620) of the culture solution, TM182-AHK2 Δ [1]: 0

SMILES: C/C(=C/CNc1ncnc2nc[nH]c12)CO [cis-zeatin]
- lowest supply concentration in which the transformed cells could be grown, TM182-AHK2 A [2]: 1 µM
- lowest supply concentration in which the transformed cells could be grown, TM182-CRE1 [3]: no growth

SMILES: C/C(=C\CNc1ncnc2nc[nH]c12)CO [trans-zeatin]
- growth state of transformed cells TM182-AHK2 Δ [4]: high growth
- growth state of transformed cells TM182-AHK2 [5]: high growth
- growth state of transformed cells TM182-CRE1 [6]: high growth
- growth state of transformed cells TM182-AHK3 [7]: high growth
- lowest supply concentration in which the transformed cells could be grown, TM182-AHK2 [8]: 1 µM
